According to the supplement of paper PMC10307832:

Columns and labels:
Test in all cases: relative viability (nuclei count vs DMSO), 5 days (fraction); higher = more cells survive
Pemetrexed + Luminespib = compound: Nc1nc2[nH]cc(CCc3ccc(C(=O)N[C@@H](CCC(=O)O)C(=O)O)cc3)c2c(=O)[nH]1 [Pemetrexed] + CCNC(=O)c1noc(-c2cc(C(C)C)c(O)cc2O)c1-c1ccc(CN2CCOCC2)cc1 [Luminespib] (partner 0.01 µM)
Summary of the method: (§1)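 Lung cancer cell lines in 1536-well plates got either a single drug or a fixed anchor-drug dose together with five library-drug doses (not always all listed) in √10 steps, by pin tool, on the day after seeding. Nuclei were counted after 5 days, and relative viability is the treated-to-vehicle ratio of nuclei counts. Values are medians of duplicate plates.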

Pemetrexed + Palbociclib = compound: Nc1nc2[nH]cc(CCc3ccc(C(=O)N[C@@H](CCC(=O)O)C(=O)O)cc3)c2c(=O)[nH]1 [Pemetrexed] + CC(=O)c1c(C)c2cnc(Nc3ccc(N4CCNCC4)cn3)nc2n(C2CCCC2)c1=O [Palbociclib] (partner 0.5 µM)
Summary of the method: as §1

Idelalisib + OSI-027 = compound: CC[C@H](Nc1ncnc2[nH]cnc12)c1nc2cccc(F)c2c(=O)n1-c1ccccc1 [Idelalisib] + COc1cccc2cc(-c3nc([C@H]4CC[C@H](C(=O)O)CC4)n4ncnc(N)c34)[nH]c12 [OSI-027] (partner 0.5 µM)
Summary of the method: as §1

Idelalisib + Trametinib = compound: CC[C@H](Nc1ncnc2[nH]cnc12)c1nc2cccc(F)c2c(=O)n1-c1ccccc1 [Idelalisib] + CC(=O)Nc1cccc(-n2c(=O)n(C3CC3)c(=O)c3c(Nc4ccc(I)cc4F)n(C)c(=O)c(C)c32)c1 [Trametinib] (partner 0.02 µM)
Summary of the method: as §1

Row | Cell Line | relative viability (Pemetrexed + Luminespib; first compound 0.002 µM) | relative viability (Pemetrexed + Luminespib; first compound 0.006325 µM) | relative viability (Pemetrexed + Luminespib; first compound 0.02 µM) | relative viability (Pemetrexed + Luminespib; first compound 0.06325 µM) | relative viability (Pemetrexed + Luminespib; first compound 0.2 µM) | relative viability (Pemetrexed + Palbociclib; first compound 0.002 µM) | relative viability (Pemetrexed + Palbociclib; first compound 0.006325 µM) | relative viability (Pemetrexed + Palbociclib; first compound 0.06325 µM) | relative viability (Pemetrexed + Palbociclib; first compound 0.2 µM) | relative viability (Idelalisib + OSI-027; first compound 0.04 µM) | relative viability (Idelalisib + OSI-027; first compound 0.1265 µM) | relative viability (Idelalisib + OSI-027; first compound 0.4 µM) | relative viability (Idelalisib + OSI-027; first compound 1.265 µM) | relative viability (Idelalisib + OSI-027; first compound 4 µM) | relative viability (Idelalisib + Trametinib; first compound 0.04 µM) | relative viability (Idelalisib + Trametinib; first compound 0.1265 µM) | relative viability (Idelalisib + Trametinib; first compound 0.4 µM) | relative viability (Idelalisib + Trametinib; first compound 1.265 µM) | relative viability (Idelalisib + Trametinib; first compound 4 µM) | relative viability (Pemetrexed + Palbociclib; first compound 0.02 µM)
1 | NCI-H650 | 0.751 | 0.733 | 0.732 | 0.705 | 0.842 | 0.344 | 0.298 | 0.348 | 0.313 | 0.491 | 0.574 | 0.446 | 0.527 | 0.506 | 1.08 | 0.928 | 0.888 | 1.09 | 0.848 | 
2 | A-427 | 0.912 | 0.923 | 0.968 | 0.793 | 0.956 | 0.505 | 0.529 | 0.509 | 0.483 | 0.443 | 0.488 | 0.332 | 0.503 | 0.469 | 0.843 | 0.812 | 0.667 | 0.78 | 0.7 | 0.572
3 | NCI-H2347 | 0.0507 | 0.281 | 0.551 | 0.55 | 0.381 | 0.448 | 0.413 | 0.4 | 0.388 | 0.379 | 0.332 | 0.367 | 0.348 | 0.257 | 0.267 | 0.282 | 0.246 | 0.278 | 0.229 | 0.505
4 | NCI-H1793 | 0.397 | 0.201 | 0.152 | 0.118 | 0.237 | 0.306 | 0.291 | 0.278 | 0.295 | 0.366 | 0.273 | 0.17 | 0.246 | 0.159 | 0.431 | 0.467 |  | 0.475 | 0.383 | 0.326
5 | NCI-H1651 | 0.845 | 0.792 | 0.965 | 0.983 | 0.732 | 0.548 | 0.477 | 0.495 | 0.529 | 0.701 | 0.731 | 0.508 | 0.778 | 0.596 | 0.825 | 0.85 | 0.815 | 0.844 | 0.814 | 0.52
6 | HCC-78 |  |  |  |  |  | 0.443 | 0.484 | 0.417 | 0.424 | 0.413 | 0.364 | 0.324 | 0.36 | 0.293 | 0.68 | 0.702 | 0.711 | 0.704 | 0.542 | 0.441
7 | NCI-H23 | 0.216 | 0.202 | 0.22 | 0.201 | 0.211 | 0.451 | 0.439 | 0.503 | 0.473 | 0.614 | 0.618 | 0.216 |  | 0.537 | 0.462 | 0.38 | 0.281 | 0.399 | 0.312 | 0.448
8 | LOU-NH91 | 0.399 | 0.318 | 0.374 | 0.298 | 0.315 | 0.478 | 0.555 | 0.534 | 0.52 | 0.776 | 0.732 | 0.687 | 0.517 | 0.708 | 0.85 | 0.803 | 0.718 | 0.751 | 0.781 | 0.543
9 | LXF-289 | 0.687 | 0.648 | 0.731 | 0.639 | 0.651 | 0.593 | 0.623 | 0.594 | 0.557 | 0.879 | 0.782 | 0.632 | 0.813 | 0.764 | 0.694 | 0.706 | 0.655 | 0.721 | 0.734 | 0.589
10 | NCI-H460 | 0.0265 | 0.0449 | 0.0346 | 0.0259 | 0.0265 |  | 0.142 | 0.0722 | 0.0459 | 0.911 | 0.794 | 0.469 | 0.571 | 0.45 | 0.218 | 0.194 | 0.139 | 0.131 | 0.113 | 0.206
11 | NCI-H1792 | 0.578 | 0.51 | 0.539 | 0.476 | 0.45 | 0.7 | 0.608 | 0.671 | 0.642 | 0.466 | 0.778 | 0.598 | 0.836 | 0.51 | 0.487 | 0.522 | 0.271 | 0.56 | 0.267 | 0.685
12 | EMC-BAC-2 | 1.15 | 1.1 | 1.11 | 1.06 | 1.18 | 0.51 | 0.461 | 0.493 | 0.466 | 0.388 | 0.411 | 0.308 | 0.363 | 0.352 | 0.953 | 0.875 | 0.795 | 0.863 | 0.859 | 0.543
13 | CAL-12T | 0.307 | 0.352 | 0.38 | 0.363 | 0.557 | 0.338 | 0.435 | 0.438 | 0.341 | 0.643 | 0.753 | 0.537 | 0.569 | 0.537 | 0.422 | 0.28 | 0.276 | 0.363 | 0.339 | 0.575
14 | ChaGo-K-1 | 0.582 | 0.577 | 0.608 | 0.47 | 0.239 | 0.959 | 0.888 | 0.668 | 0.369 | 0.618 | 0.55 | 0.456 | 0.576 | 0.513 | 0.945 | 0.907 | 0.865 | 0.906 | 0.913 | 0.971
15 | COR-L 105 | 0.77 | 0.834 | 0.673 | 0.862 | 0.729 | 0.295 | 0.424 | 0.396 | 0.423 | 0.739 | 0.629 | 0.505 | 0.725 | 0.579 | 0.518 | 0.41 | 0.41 | 0.456 | 0.461 | 0.399
16 | NCI-H1944 |  | 0.752 | 0.72 | 0.734 | 0.69 | 0.286 | 0.304 | 0.312 | 0.343 | 0.473 | 0.411 | 0.271 | 0.396 | 0.365 | 0.448 | 0.354 | 0.336 | 0.352 | 0.318 | 0.339
17 | NCI-H2009 | 0.94 | 0.995 | 1.04 | 0.991 | 1.03 | 0.263 | 0.205 | 0.22 | 0.203 | 0.642 | 0.646 | 0.515 | 0.509 | 0.557 | 0.297 | 0.232 | 0.201 | 0.228 | 0.179 | 0.194
18 | SW 900 | 0.198 | 0.147 | 0.18 | 0.181 | 0.158 | 0.549 | 0.564 | 0.516 | 0.521 | 0.553 | 0.642 | 0.376 | 0.744 | 0.373 | 0.854 | 0.861 | 0.856 | 0.667 | 0.734 | 0.604
19 | NCI-H441 | 0.35 | 0.328 | 0.33 | 0.393 | 0.328 | 0.212 | 0.229 | 0.18 | 0.204 | 0.788 | 0.561 | 0.397 | 0.526 | 0.616 | 0.437 | 0.484 |  | 0.615 | 0.396 | 0.211
20 | NCI-H1623 | 0.628 | 0.325 | 0.503 | 0.443 | 0.613 |  |  |  |  | 0.409 | 0.463 | 0.45 | 0.402 | 0.386 |  |  |  |  |  | 
21 | NCI-H1437 |  | 1.06 | 0.997 | 0.856 | 0.487 | 0.214 | 0.307 | 0.307 | 0.329 | 0.861 | 0.864 | 0.795 | 1.07 | 0.967 | 0.561 | 0.547 | 0.461 | 0.545 | 0.354 | 0.303
22 | PC-14 | 0.15 | 0.133 | 0.151 | 0.136 | 0.137 | 0.578 | 0.501 | 0.185 | 0.118 | 0.946 | 1.05 | 0.721 | 0.338 | 0.754 | 0.648 | 0.757 | 0.695 | 0.723 | 0.509 | 0.471
23 | LCLC-103H | 0.963 | 0.942 | 1.02 | 0.796 | 0.94 | 0.465 | 0.454 | 0.443 | 0.479 | 0.545 | 0.497 | 0.368 | 0.459 | 0.424 | 0.659 | 0.607 | 0.664 | 0.63 | 0.64 | 0.496
24 | COR-L23 | 0.639 | 0.63 | 0.771 | 0.358 | 0.176 | 0.21 | 0.275 | 0.149 | 0.127 | 0.78 | 0.815 | 0.722 | 0.809 | 0.74 | 0.603 | 0.639 | 0.538 | 0.62 | 0.578 | 0.254
25 | HCC-366 |  |  |  |  |  | 0.356 | 0.349 | 0.367 | 0.226 | 1.09 | 0.889 | 0.598 | 0.788 | 0.677 | 0.362 | 0.464 | 0.274 | 0.354 | 0.233 | 0.349
26 | ABC-1 |  | 0.521 | 0.709 | 0.777 | 0.637 | 0.905 | 0.527 | 0.468 | 0.542 | 0.491 | 0.495 | 0.43 | 0.577 | 0.409 |  |  |  |  |  | 0.684
27 | NCI-H1563 | 0.496 | 0.505 | 0.562 | 0.481 | 0.569 |  |  |  |  | 0.766 | 0.757 | 0.703 | 0.767 | 0.701 |  |  |  |  |  | 
28 | NCI-H596 | 0.97 | 1.01 | 1.14 | 0.945 | 0.679 |  |  |  |  | 0.859 | 0.746 | 0.666 | 0.65 | 0.551 | 0.756 | 0.82 | 0.782 | 0.878 | 0.592 | 
29 | NCI-H1648 |  |  |  |  |  | 0.255 | 0.24 | 0.282 | 0.302 | 0.272 | 0.368 | 0.261 | 0.285 | 0.26 | 0.418 | 0.482 | 0.423 | 0.433 | 0.397 | 0.24
